This note sets out measurements from US12344610B2, “APOL1 inhibitors and methods of use” (Maze Therapeutics, Inc., priority 2022, dated 2025).

In the experiment the test system is human immortalized podocytes inducibly expressing APOL1 G2. In words: APOL1 G2 podocyte cell rescue assay (Example B4). It is filed as cell-based. The settings on record: differentiated human podocytes, doxycycline-induced APOL1 G2, CellTiter-Glo, geometric mean of at least 2 runs, † = single run. As to the method: APOL1 G2 human immortalized podocyte viability assay for measurement of cytotoxicity reversal by compound (APOL1 G2 podocyte cell rescue assay).
Cell Handling. The hTERT-immortalized kidney podocyte cell line was procured from the laboratory of Dr. Moin Saleem at the University of Bristol, UK (Nephrology 17 (2012) 525-531; doi:10.1111/j.1440-1797.2012.01619.x; herein incorporated by reference in its entirety). Parental and engineered cell lines were cultured in RPMI 1640 media (Gibco, 11875093) with 10% Tet System Approved FBS (Takara, 631101). The engineered cell line was maintained under selection (2.5 μg/mL puromycin). Cell lines were maintained and engineered at 33° C. Cell cultures were transferred to 37° C. for 10 to 14 days to initiate differentiation (Nephrology 17 (2012) 525-531; doi:10.1111/j.1440-1797.2012.01619.x; herein incorporated by reference in its entirety). During this time, media was refreshed every 3 days. After differentiation, cells engineered to inducibly express APOL1 G2 were used in the podocyte cell rescue assay.
Cell Line Engineering. The APOL1 G2 coding sequence was cloned into the pLVX-TetOne-Puro vector and verified by sequencing (Genscript Biotech). This construct was designed to have a C-terminal HiBiT tag. Lentiviral packaging of the vector was conducted using the Lenti-X Packaging Single Shots (VSVG) system according to manufacturer instructions (Takara Bio, 631275). A stable cell line was generated by transfecting the parental podocyte cell line with the concentrated virus in media with 5 μg/mL polybrene (Sigma, TR-1003-G). Media was changed the following day. 72 hours post transfection, 2.5 μg/mL puromycin (Gibco, A1113803) was added to the cells and cells were maintained in selection media thereafter. This APOL1 G2 stable cellular pool was subjected to a stringent limiting dilution to generate a pure stable clone (Podocyte/pLVX-TetOne APOL1 G2/clone D10) capable of inducible expression of APOL1 G2.
Assay Setup. T175 flasks containing differentiated podocytes engineered to inducibly express APOL1 G2 (Podocyte/pLVX-TetOne APOL1 G2/clone D10) were washed once with 15 mL of DPBS (Thermo Fisher, 14190-144). These flasks were each trypsinized with 3 mL of prewarmed TrypLE Express (Gibco, 12605-010) and incubated at 37° C. with 5% CO2 until cells detached and neutralized with 7 mL of prewarmed assay media (RPMI 1640 media with 10% Tet System Approved FBS, no selection agent). Cells were pooled and the resulting suspension was gently mixed. The cell suspension was counted using a Countess Cell Counting Chamber (Invitrogen) and the cell concentration was adjusted to 240,000 cells/mL using assay media. Next, 25 μL of a 480 ng/mL working stock of doxycycline diluted in assay media was added to an assay ready plate. All experiments were performed in 384-well, white, solid bottom, tissue culture treated plates (Greiner, 781080). The assay ready compound plates were generated with duplicate 8-point compound dilution series that consisted of 3-fold stepwise dilutions (0.4% DMSO final). The plates were centrifuged at 1000 rpm for 1 minute. 25 μL of diluted cell suspension (final cell density=6,000 cells/well) was added to each well. The plates were centrifuged again at 1000 rpm for 1 minute and then incubated in a humidified incubator (37° C. with 5% CO2). After 95 hours, the assay plates were removed from the incubator and allowed to equilibrate to room temperature for 1 hour. CellTiter-Glo® reagent (Promega, G7570) was prepared according to the manufacturer's instructions. 25 μL of CellTiter-Glo® reagent was added to each well. Assay plates were sealed with foil and mixed for 5 minutes on an orbital shaker (500 rpm) to induce cell lysis. Plates were centrifuged at 1000 rpm for 1 minute. 10 minutes after CellTiter-Glo® reagent addition, an Envision plate reader (Perkin Elmer) was used to measure the luminescent signal of each assay plate. Collaborative Drug Discovery software was utilized for graphing data. […]
For orientation: In ATP-based viability assays light output follows the ATP content of the culture.

Broadly, the EC50 is the concentration at which the effect is half-maximal. A high value points to weaker potency. In turn, `CC(O)c1ncc(OCCN2CCC3(CC2)C(=O)Nc2ccc(C(F)F)cc23)cc1C(F)(F)F` (single isomer, unassigned) [Compound 287, 5-(difluoromethyl)-1′-[2-({6-[(1S) or (1R)-1-hydroxyethyl]-5-(trifluoromethyl)pyridin-3-yl}oxy)ethyl]-1,2-dihydrospiro[indole-3,4′-piperidin]-2-one] had an EC50 (Homo sapiens) of 17.7 nM.

Turning to `CS(=O)(=O)N1CC2(CN(C(=O)c3ccc(OCCN4CCC5(CC4)C(=O)Nc4ccc(Cl)cc45)cc3F)C2)C1` [Compound 273, 5-chloro-1′-[2-(3-fluoro-4-{6-methanesulfonyl-2,6-diazaspiro[3.3]heptane-2-carbonyl}phenoxy)ethyl]-1,2-dihydrospiro[indole-3,4′-piperidin]-2-one], where the note is “Homo sapiens”, a half-maximal effect (EC50) was put at 5.2 nM. Against the preceding compound, the EC50 is about 3.4-fold lower.

Turning to `CS(=O)(=O)C1(c2ncc(OCCN3CCC4(CC3)C(=O)Nc3ccc(Cl)cc34)cn2)COC1` [Compound 276, 5-chloro-1′-(2-{[2-(3-methanesulfonyloxetan-3-yl)pyrimidin-5-yl]oxy}ethyl)-1,2-dihydrospiro[indole-3,4′-piperidin]-2-one], under “Homo sapiens”, the midpoint of the response, the EC50, lay at 10.4 nM.

Take `CC(C)(O)c1ncc(OCCN2CCC3(CC2)C(=O)Nc2ccc(Cl)cc23)cn1` [Compound 305, 5-chloro-1′-(2-{[2-(2-hydroxypropan-2-yl)pyrimidin-5-yl]oxy}ethyl)-1,2-dihydrospiro[indole-3,4′-piperidin]-2-one]: it took 15 nM to reach a half-maximal effect (Homo sapiens) (EC50).

The compound `O=C(c1ccc(OCCN2CCC3(CC2)C(=O)Nc2ccc(Cl)cc23)cc1F)N1CCS(=O)(=O)CC1` [Compound 232, 4-[4-(2-{5-chloro-2-oxo-1,2-dihydrospiro[indole-3,4′-piperidin]-1′-yl}ethoxy)-2-fluorobenzoyl]-1λ^6-thiomorpholine-1,1-dione] returned an EC50 (Homo sapiens) of 2.17 nM.

`C[C@]1(O)C[C@@H](N2C(=O)CCc3cc(OCCN4CCC5(CC4)C(=O)Nc4ccc(Cl)cc45)cnc32)C1` [Compound 275, 5-chloro-1′-[2-({7-oxo-8-[(cis)-3-hydroxy-3-methylcyclobutyl]-5,6,7,8-tetrahydro-1,8-naphthyridin-3-yl}oxy)ethyl]-1,2-dihydrospiro[indole-3,4′-piperidin]-2-one] gave an EC50 (Homo sapiens) of 3.89 nM. This EC50 is about 1.8-fold higher than that of the compound before.

`O=C1Nc2ccc(Cl)cc2C12CCN(CCOc1cnc(N3CC(O)C3)nc1)CC2` [Compound 301, 5-chloro-1′-(2-{[2-(3-hydroxyazetidin-1-yl)pyrimidin-5-yl]oxy}ethyl)-1,2-dihydrospiro[indole-3,4′-piperidin]-2-one] came in with an EC50 (Homo sapiens) of 66.9 nM.

`O=C1Nc2ccc(Cl)cc2C12CCN(CCOc1cnc3c(N4CC(O)C4)nccc3c1)CC2` [Compound 314, 5-chloro-1′-(2-{[8-(3-hydroxyazetidin-1-yl)-1,7-naphthyridin-3-yl]oxy}ethyl)-1,2-dihydrospiro[indole-3,4′-piperidin]-2-one] had a half-maximal effective concentration (EC50) (Homo sapiens) of 4.57 nM.

In turn, `O=C(c1c(F)cc(OCCN2CCC3(CC2)C(=O)Nc2ccc(Cl)cc23)cc1F)N1CCS(=O)(=O)CC1` [Compound 259, 4-[4-(2-{5-chloro-2-oxo-1,2-dihydrospiro[indole-3,4′-piperidin]-1′-yl}ethoxy)-2,6-difluorobenzoyl]-1λ^6-thiomorpholine-1,1-dione] showed a concentration giving a half-maximal response (EC50) (Homo sapiens) of 1.21 nM.

The compound `CC1(O)CN(c2nccc3cc(OCCN4CCC5(CC4)C(=O)Nc4ccc(Cl)cc45)cnc23)C1` [Compound 306, 5-chloro-1′-(2-{[8-(3-hydroxy-3-methylazetidin-1-yl)-1,7-naphthyridin-3-yl]oxy}ethyl)-1,2-dihydrospiro[indole-3,4′-piperidin]-2-one] came in with an EC50 (Homo sapiens) of 1.94 nM.

The compound `CS(=O)(=O)C1CN(C(=O)c2ccc(OCCN3CCC4(CC3)C(=O)Nc3ccc(Cl)cc34)cc2F)C1` [Compound 233, 5-chloro-1′-{2-[3-fluoro-4-(3-methanesulfonyl-azetidine-1-carbonyl)phenoxy]ethyl}-1,2-dihydrospiro[indole-3,4′-piperidin]-2-one] gave an EC50 (Homo sapiens) of 4.25 nM. Compared with the last compound, the EC50 is about 2.2-fold higher.

Compound `CS(=O)(=O)c1ccc(OCCN2CCC3(CC2)C(=O)N(CCO)c2ccc(Br)cc23)cc1` [Compound 24, 5-bromo-1-(2-hydroxyethyl)-1′-[2-(4-methanesulfonylphenoxy)ethyl]-1,2-dihydrospiro[indole-3,4′-piperidin]-2-one] yielded an EC50 (Homo sapiens) of 37.4 nM.

For the compound `CN1C(=O)C2(CCN(CCOc3cc(F)c(C(=O)N4CCS(=O)(=O)CC4)c(F)c3)CC2)c2cc(C#N)ccc21` [Compound 260, 1′-{2-[4-(1,1-dioxo-1λ^6-thiomorpholine-4-carbonyl)-3,5-difluorophenoxy]ethyl}-1-methyl-2-oxo-1,2-dihydrospiro[indole-3,4′-piperidine]-5-carbonitrile], for the setting “Homo sapiens”, a half-maximal effect (EC50) was put at 10.3 nM.

With `CC(O)c1ncc(OCCN2CCC3(CC2)C(=O)Nc2ccc(C(F)F)cc23)cc1C(F)(F)F` (single isomer, unassigned) [Compound 288, 5-(difluoromethyl)-1′-[2-({6-[(1R) or (1S)-1-hydroxyethyl]-5-(trifluoromethyl)pyridin-3-yl}oxy)ethyl]-1,2-dihydrospiro[indole-3,4′-piperidin]-2-one], it took 19.5 nM to reach a half-maximal effect (EC50).

The compound `C[C@]1(O)C[C@H](N2C(=O)CCc3cc(OCCN4CCC5(CC4)C(=O)Nc4ccc(Cl)cc45)cnc32)C1` (single isomer, unassigned) [Compound 307, 5-chloro-1′-[2-({7-oxo-8-[(trans)-3-hydroxy-3-methylcyclobutyl]-5,6,7,8-tetrahydro-1,8-naphthyridin-3-yl}oxy)ethyl]-1,2-dihydrospiro[indole-3,4′-piperidin]-2-one] showed a half-maximal effective concentration (EC50) (Homo sapiens) of 2.61 nM. In other words, the single-digit nanomolar range.

For the compound `CC1(O)CN(c2ncc(OCCN3CCC4(CC3)C(=O)Nc3ccc(Cl)cc34)cn2)C1` [Compound 300, 5-chloro-1′-(2-{[2-(3-hydroxy-3-methylazetidin-1-yl)pyrimidin-5-yl]oxy}ethyl)-1,2-dihydrospiro[indole-3,4′-piperidin]-2-one], the midpoint of the response (Homo sapiens), the EC50, lay at 33.3 nM.

`CS(=O)(=O)C1(c2ncc(OCCN3CCC4(CC3)C(=O)Nc3ccc(C#N)cc34)cc2F)CC1` [Compound 283, 1′-(2-{[5-fluoro-6-(1-methanesulfonylcyclopropyl)pyridin-3-yl]oxy}ethyl)-2-oxo-1,2-dihydrospiro[indole-3,4′-piperidine]-5-carbonitrile] registered an EC50 (Homo sapiens) of 5.08 nM.

In the case of `CN1C(=O)C2(CCN(CCOc3ccc(C(=O)N4CCS(=O)(=O)CC4)c(C(F)(F)F)c3)CC2)c2cc(C#N)ccc21` [Compound 261, 1′-{2-[4-(1,1-dioxo-1λ^6-thiomorpholine-4-carbonyl)-3-(trifluoromethyl)phenoxy]ethyl}-1-methyl-2-oxo-1,2-dihydrospiro[indole-3,4′-piperidine]-5-carbonitrile], the 50% effective concentration (EC50) (Homo sapiens) came out at 2.29 nM.

For the compound `C[C@]1(O)C[C@@H](N2C(=O)OCc3cc(OCCN4CCC5(CC4)C(=O)Nc4ccc(Cl)cc45)cnc32)C1` [Compound 289, 5-chloro-1′-[2-({2-oxo-1-[(cis)-3-hydroxy-3-methylcyclobutyl]-1H,2H,4H-pyrido[2,3-d][1,3]oxazin-6-yl]oxy)ethyl]-1,2-dihydrospiro[indole-3,4′-piperidin]-2-one], for the setting “Homo sapiens”, the EC50 came to 2.22 nM.

In turn, `O=C(c1ccc(OCCN2CCC3(CC2)C(=O)Nc2ccc(Cl)cc23)cc1F)N1CC2(C1)CS(=O)(=O)C2` [Compound 239, 6-[4-(2-{5-chloro-2-oxo-1,2-dihydrospiro[indole-3,4′-piperidin]-1′-yl}ethoxy)-2-fluorobenzoyl]-2λ^6-thia-6-azaspiro[3.3]heptane-2,2-dione] registered an EC50 (Homo sapiens) of 2.1 nM.
